# According to patent US6589991B1, “Therapeutic methods employing disulfide derivatives of dithiocarbamates and compositions useful therefor” (Medinox, Inc., priority 1998, dated 2003):
# “Also recorded” adds a separate entry of the source.
# Key:
# [1] = tested on: diabetic-prone BB rats
# Protocol: FIG. 4 is a graph illustrating the effects of oral administration of L-proline dithiocarbamate on the survival of diabetic-prone BB rats. The percentage of survival was plotted against the age of the animals over 125 days. The treated group (n=30) (▪) received 5 mg/ml monomeric L-proline dithiocarbamate in drinking water, while the untreated group (n=31) (□) received only water.
# We tested the effectiveness of the oral administration of (L-PD) for the treatment of diabetic-prone BB rats, an animal model that is widely used for type I insulin-dependent diabetes. Type I diabetes is an autoimmune disease. the pathogenesis of this disease remains unclear although there is ample evidence for increased NO production at early stages of the disease (see, for example, G. M. Piper, Hypertension, 31: 1047-1060, 1998).
# Male, diabetic-prone BB rats (n=61, 250-280 g) were used for the study. The rats were distributed between untreated and L-PD treated groups. The treated group received 5 mg/ml L-PD in drinking water. The treatment started when the animals were 2 months old and continued until they were 4 months old. […] Percent survival was calculated by Product-Limit Survival Analysis Generalized Savage (Mantel-Cox) with p<0.01.
# [2] = tested on: Lewis rats; conditions: 10 mg/ml in drinking water; scored 0-6 from day 6; n=9
# Protocol: The test rats (▪) were given L-PD in drinking water (10 mg/ml). Control rats ([formula]) received only distilled water for drinking. Beginning on day 6, the left foot of the animals was scored for the development of arthritic disease using the following system: 0=no redness or inflammation, 1=one area of redness or inflammation on the foot less than 2 mm in diameter, 3=partial redness/inflammation of the footpad, 4=all of footpad red or inflamed, 5=criteria of 4 plus at least one toe red or inflamed, and 6=criteria of 4 plus toes inflamed and deformed (toes curling under footpad).
# After the subcutaneous injection in the right footpad of a suspension in mineral oil of heat killed M. tuberculosis on day 1, the Lewis rats were separated into two groups (n=9); one given L-PD (10 mg/ml) in the drinking water and the other given only distilled water. Beginning on day 6, the left foot of the animals was scored for the development of arthritic disease using the following system: 0=no redness or inflammation, 1=one area of redness or inflammation on the foot less than 2 mm in diameter, 3=partial redness/inflammation of the footpad, 4=all of footpad red or inflamed, 5=criteria of 4 plus at least one toe red or inflame, d, and 6=criteria of 4 plus toes inflamed and deformed (toes curling under footpad).
# [3] = Conversion of the dithiocarbamate disulfide to the monomer by L-cysteine (UV spectrum); assay type: physicochemical; conditions: L-cysteine 5 mg/mL in 60 mM HEPES pH 7.4; disulfide 20 μg/mL; UV 190-340 nm
# Protocol: FIG. 2 is an illustration of the UV spectrum of N-methyl-D-glucamine dithiocarbamate disulfide (MGDD) (20 μg/mL)in the presence of L-cysteine (5 mg/mL). The spectrum was recorded with a scan range of 190 nm to 340 nm.
# FIG. 10 is an illustration of the UV spectrum measured on Hewlett Packard 8451A Diode Array Spectrophotometer. Scanning wavelength 190 nm-340 nm. One mL freshly prepared solution of L-cysteine (5 mg/mL) in 60 mM HEPES buffer, pH=7.4 is transferred into the UV cell (cell length 1 cm) plus 1 μl acetone and the absorbance of this solution is measured as a background. Added 1 μl stock solution of Pyrrolidine dithiocarbamate disulfide (PDD) in acetone to the cuvette—final concentration of PDD is 20 μg/mL. After mixing the UV spectrum is measured immediately.
# A freshly prepared solution of L-cysteine (5 mg/mL) in 60 mM HEPES buffer, pH 7.4 was transferred into a UV cell (cell length 1cm) plus 1 μl acetone and the absorbance of this solution was recorded as background. Immediately after the addition of Pyrrolidine dithiocarbamate disulfide (PDD) (final concentration of 20 μg/mL), the spectrum was recorded with a scan range of 190 nm to 340 nm.
# [4] = assay type: physicochemical; conditions: KCN in water; UV spectrum recorded immediately after mixing
# [5] = Stability at pH 1 / stomach acid; assay type: physicochemical
# [6] = cited from earlier work
smiles,measurement,setting,value
"NC(=S)S.O=C(O)[C@@H]1CCCN1 [L-PD, L-proline dithiocarbamate]",animals surviving at the end of the experiments,"[1]; 5 mg/ml in drinking water for 2 months (age 2 to 4 months), untreated 10 percent, p<0.01",more than 30%
same,improvement in survival compared to the untreated group,"[1]; 5 mg/ml in drinking water, n=30, over 125 days",statistically significant
same,effect on water consumption,"[1]; chronic treatment, 5 mg/ml in drinking water",no apparent effect
same,severity score of the inflammation in the left footpad,[2],significantly reduced
"CN(C[C@H](O)[C@@H](O)[C@H](O)[C@H](O)CO)C(=S)SSC(=S)N(C)C[C@H](O)[C@@H](O)[C@H](O)[C@H](O)CO [MGDD, N-methyl-D-glucamine dithiocarbamate disulfide]",conversion to the monomeric dithiocarbamate on addition of L-cysteine,[3],"readily be converted into its starting material, MGD; also recorded: identical to that of N-methyl-D-glucamine dithiocarbamate"
same,reaction with potassium cyanide,[4],fast reaction
"S=C(SSC(=S)N1CCCC1)N1CCCC1 [PDD, Pyrrolidine dithiocarbamate disulfide]",time stable at pH 1,[5],≤ 24 hours
same,conversion to the monomeric dithiocarbamate on addition of L-cysteine,[3],"readily be converted into its starting material, pyrrolidine dithiocarbamate"
same,reaction with potassium cyanide,[4],fast reaction
S=C(S)N1CCCC1 [Pyrrolidine dithiocarbamate],stability in the presence of stomach acid,[6],breaks down to ineffective species
